Assay results reported in patent US20040053915A1, “Use of stimulators of soluble guanylate cyclase for treating osteoporosis” (priority 2000, published 2004).

Test system: rats of the strain HsdCpb:Wu
Test: Increased bone formation in rats after 4 weeks of once-daily administration via stomach tube
Format: in vivo
Conditions: once per day via stomach tube, male and female rats, all test animals
Experimental: For a period of 4 weeks, one of the two compounds listed in Table 1 was administered, in each case in one of the concentrations given in Table 1, once per day via a stomach tube to 10 male and 10 female rats of the strain HsdCpb:Wu. […] Pathological endosteal or periosteal changes were not noticed.

Row | Structure (SMILES) | bone formation in the area of the spongioid bone proximally and distally to the epiphyseal arcus of the great tubular bones (50 mg/kg or more) | bone formation in the area of the spongioid bone proximally and distally to the epiphyseal arcus of the great tubular bones (5 mg/kg or more)
1 | Nc1nc(-c2nn(Cc3ccccc3F)c3ncccc23)ncc1C1CC1 [Compound 1] | increased bone formation | 
2 | Nc1nc(-c2nn(Cc3ccccc3F)c3ncccc23)nc(N)c1N1CCOCC1 [Compound 2] |  | increased bone formation
